Assay results as given in US8877684B2, “Pesticidal composition comprising a synthetic compound useful as nodulation agent of leguminous plants and an insecticide compound” (Bayer CropScience AG, priority 2006, dated 2014).

Experiments:
[1] = tested on: Myzus persicae; assay: Myzus persicae test: cabbage leaves infested with green peach aphid dipped into the preparation; assay type: in vivo; settings: foliar, 96 h, leaf dip, after 4 d
Procedure: (§1) The expected efficacy of a given combination of two compounds is calculated as follows (see Colby, S. R., “Calculating Synergistic and antagonistic Responses of Herbicide Combinations”, Weeds 15, pp. 20-22, 1967):
(§2) • X is the efficacy expressed in % mortality of the untreated control for test compound A at a concentration of m ppm respectively m g/ha; • Y is the efficacy expressed in % mortality of the untreated control for test compound B at a concentration of n ppm respectively n g/ha; • E is the efficacy expressed in % mortality of the untreated control using the mixture of A and B at m and n ppm respectively m and n g/ha; then is
(§3) If the observed insecticidal efficacy of the combination is higher than the one calculated as “E”, then the combination of the two compounds is more than additive, i.e., there is a synergistic effect.
To produce a suitable preparation of active compound, 1 part by weight of active compound is mixed with the stated amount of solvent and emulsifier, and the concentrate is diluted with emulsifier-containing water to the desired concentration. Cabbage leaves (Brassica oleracea) which are heavily infested by the green peach aphid (Myzus persicae) are treated by being dipped into the preparation of the active compound of the desired concentration.
(§4) After the specified period of time, the mortality in % is determined. […]

[2] = tested on: Phaedon cochleariae; assay: Phaedon cochleariae test: dipped cabbage leaves infested with mustard beetle larvae; assay type: in vivo; settings: foliar, 96 h, leaf dip, after 4 d
Procedure: as §1, §2, §3
To produce a suitable preparation of active compound, 1 part by weight of active compound is mixed with the stated amount of solvent and emulsifier, and the concentrate is diluted with emulsifier-containing water to the desired concentration. Cabbage leaves (Brassica oleracea) are treated by being dipped into the preparation of the active compound of the desired concentration and are infested with larvae of the mustard beetle (Phaedon cochleariae) as long as the leaves are still moist.
as §4

With `O=[N+]([O-])NC1=NCCN1Cc1ccc(Cl)nc1` [Imidacloprid] the mortality at 0.16 ppm [1] was 10% and the mortality at 20 ppm [2] was 70%.
